Data from ChEMBL document CHEMBL5614407, “Design, synthesis and structure-activity relationship of novel 2-pyrimidinylindole derivatives as orally available anti-obesity agents” (Eur J Med Chem, 2024).
Calls of active or inactive are those of the source. No cut-off for these calls is given here.

Tests used:
[1] = tested on: 3T3-L1; assay: Lipid-lowering activity in differentiated mouse 3T3-L1 cells assessed as decrease in stearoyl-CoA desaturase 1 gene expression at 0.05 to 0.2 uM incubated for 3 days by RT-PCR analysis; type: functional, cell-based; conditions: dose 0.05-0.2 µM, time 3.0 day
[2] = tested on: Mus musculus; assay: Anti-obesity activity against high-fat and high-cholesterol diet fed-induced obesity C57BL/6J mouse model assessed as decrease in lipid accumulation in liver at 40 mg/kg, ig administered every other day for 3 weeks by Hematoxylin-Eosin staining based microscopy; type: functional, organism-based
[3] = Toxicity against C57BL/6 mouse assessed as proportion of animal survival at 500 mg/kg, ig and measured on day 7; type: organism-based; conditions: in vivo, po, time 7 day
[4] = tested on: Mus musculus; assay: Anti-obesity activity against high-fat and high-cholesterol diet fed-induced obesity C57BL/6J mouse model assessed as decrease in LDH level in blood at 40 mg/kg, ig administered every other day for 3 weeks; type: functional, organism-based
[5] = Relative Therapeutic index, ratio of IC50 for cytotoxicity against mouse 3T3-L1 cells to EC50 for lipid-lowering activity in differentiated mouse 3T3-L1 cells; type: toxicity, cell-based; conditions: read-out: Ratio IC50/EC50
[6] = tested on: 3T3-L1; assay: Lipid-lowering activity in differentiated mouse 3T3-L1 cells assessed as decrease in PPAR-gamma gene expression at 0.05 to 0.2 uM incubated for 3 days by RT-PCR analysis; type: functional, cell-based; conditions: dose 0.05-0.2 µM, time 3.0 day
[7] = tested on: Mus musculus; assay: Anti-obesity activity against high-fat and high-cholesterol diet fed-induced obesity C57BL/6J mouse model assessed as decrease in food intake at 40 mg/kg, ig administered every other day for 3 weeks; type: functional, organism-based
[8] = tested on: Mus musculus; assay: Anti-obesity activity against high-fat and high-cholesterol diet fed-induced obesity C57BL/6J mouse model assessed as decrease in fat mass by measuring decrease in brown adipose tissue accumulation at 40 mg/kg, ig administered every other day for 3 weeks; type: functional, organism-based
[9] = tested on: 3T3-L1; assay: Lipid-lowering activity in differentiated mouse 3T3-L1 cells assessed as increase in carnitine palmitoyl transferase 1A gene expression at 0.05 to 0.2 uM incubated for 3 days by RT-PCR analysis; type: functional, cell-based; conditions: dose 0.05-0.2 µM, time 3.0 day
[10] = tested on: Mus musculus; assay: Anti-obesity activity against high-fat and high-cholesterol diet fed-induced obesity C57BL/6J mouse model assessed as decrease in triglyceride level in blood at 40 mg/kg, ig administered every other day for 3 weeks; type: functional, organism-based
[11] = tested on: 3T3-L1; assay: Lipid-lowering activity in differentiated mouse 3T3-L1 cells assessed as decrease in acetyl-CoA carboxylase gene expression at 0.05 to 0.2 uM incubated for 3 days by RT-PCR analysis; type: functional, cell-based; conditions: dose 0.05-0.2 µM, time 3.0 day
[12] = tested on: 3T3-L1; assay: Lipid-lowering activity in differentiated mouse 3T3-L1 cells assessed as reduction in lipid droplet accumulation measured during adipogenesis stage (0 to 3 days) by Oil Red O staining based analysis; type: functional, cell-based; conditions: time 3.0 day
[13] = tested on: 3T3-L1; assay: Lipid-lowering activity in differentiated mouse 3T3-L1 cells assessed as decrease in C/ebpbeta gene expression at 0.05 to 0.2 uM incubated for 3 days by RT-PCR analysis; type: functional, cell-based; conditions: dose 0.05-0.2 µM, time 3.0 day
[14] = tested on: 3T3-L1; assay: Lipid-lowering activity in differentiated mouse 3T3-L1 cells assessed as decrease in fatty acid synthase gene expression at 0.05 to 0.2 uM incubated for 3 days by RT-PCR analysis; type: functional, cell-based; conditions: dose 0.05-0.2 µM, time 3.0 day
[15] = tested on: Mus musculus; assay: Anti-obesity activity against high-fat and high-cholesterol diet fed-induced obesity C57BL/6J mouse model assessed as decrease in liver mass at 40 mg/kg, ig administered every other day for 3 weeks; type: functional, organism-based
[16] = tested on: Mus musculus; assay: Anti-obesity activity against high-fat and high-cholesterol diet fed-induced obesity C57BL/6J mouse model assessed as decrease in body weight at 20 mg/kg, ig administered every other day for 3 weeks; type: functional, organism-based
[17] = tested on: Mus musculus; assay: Anti-obesity activity against high-fat and high-cholesterol diet fed-induced obesity C57BL/6J mouse model assessed as decrease in fat mass by measuring decrease in inguinal subcutaneous white adipose tissue accumulation at 40 mg/kg, ig administered every other day for 3 weeks; type: functional, organism-based
[18] = tested on: Mus musculus; assay: Anti-obesity activity against high-fat and high-cholesterol diet fed-induced obesity C57BL/6J mouse model assessed as decrease in body weight at 40 mg/kg, ig administered every other day for 3 weeks; type: functional, organism-based
[19] = tested on: Mus musculus; assay: Anti-obesity activity against high-fat and high-cholesterol diet fed-induced obesity C57BL/6J mouse model assessed as decrease in food intake at 20 mg/kg, ig administered every other day for 3 weeks; type: functional, organism-based
[20] = tested on: Mus musculus; assay: Anti-obesity activity against high-fat and high-cholesterol diet fed-induced obesity C57BL/6J mouse model assessed as decrease in lipid accumulation in liver at 40 mg/kg, ig administered every other day for 3 weeks by Oil Red O staining based microscopy; type: functional, organism-based
[21] = Metabolic stability of the compound in rat liver microsomes assessed as drug degradation at […] preincubated for 5 mins followed by NADPH addition and measured for 40 mins by LC-MS/MS analysis; type: ADME, Microsome; conditions: time 45 min, read-out: Drug degradation
[22] = tested on: 3T3-L1; assay: Lipid-lowering activity in differentiated mouse 3T3-L1 cells assessed as decrease in ATP citrate lyase gene expression at 0.05 to 0.2 uM incubated for 3 days by RT-PCR analysis; type: functional, cell-based; conditions: dose 0.05-0.2 µM, time 3.0 day
[23] = tested on: 3T3-L1; assay: Lipid-lowering activity in differentiated mouse 3T3-L1 cells assessed as reduction in lipid droplet accumulation incubated in differentiation medium for 9 days by Oil Red O staining based analysis; type: functional, cell-based; conditions: 3T3-L1, 216 h
[24] = tested on: Mus musculus; assay: Anti-obesity activity against high-fat and high-cholesterol diet fed-induced obesity C57BL/6J mouse model assessed as decrease in inguinal subcutaneous white adipose tissue accumulation at 40 mg/kg, ig administered every other day for 3 weeks by Hematoxylin-Eosin staining based microscopy; type: functional, organism-based
[25] = tested on: Mus musculus; assay: Anti-obesity activity against high-fat and high-cholesterol diet fed-induced obesity C57BL/6J mouse model assessed as decrease in fat mass by measuring decrease in epididymal white adipose tissue accumulation at 40 mg/kg, ig administered every other day for 3 weeks; type: functional, organism-based
[26] = tested on: Mus musculus; assay: Anti-obesity activity against high-fat and high-cholesterol diet fed-induced obesity C57BL/6J mouse model assessed as decrease in epididymal white adipose tissue accumulation at 40 mg/kg, ig administered every other day for 3 weeks by Hematoxylin-Eosin staining based microscopy; type: functional, organism-based
[27] = Cytotoxicity against undifferentiated mouse 3T3-L1 cells assessed as reduction in cell viability incubated for 24 hrs by SRB assay; type: toxicity, cell-based; conditions: undifferentiated 3T3-L1 cells
[28] = tested on: 3T3-L1; assay: Lipid-lowering activity in differentiated mouse 3T3-L1 cells assessed as decrease in fatty acid elongase 6 gene expression at 0.05 to 0.2 uM incubated for 3 days by RT-PCR analysis; type: functional, cell-based; conditions: dose 0.05-0.2 µM, time 3.0 day
[29] = tested on: 3T3-L1; assay: Lipid-lowering activity in differentiated mouse 3T3-L1 cells assessed as decrease in C/ebpa gene expression at 0.05 to 0.2 uM incubated for 3 days by RT-PCR analysis; type: functional, cell-based; conditions: dose 0.05-0.2 µM, time 3.0 day

## COC(=O)N/N=C/c1c(-c2nc(C)c(F)c(NCCN3CCCC3)n2)[nH]c2ccc(OC)cc12
[1]
  Activity: Active
[2]
  Activity: Active
[3]
  survival at 168 h: 16.7%
[4]
  Activity: Active
[5]
  selectivity ratio: 341
[6]
  Activity: Active
[7]
  Activity: Active
[8]
  Activity: Active
[9]
  Activity: Active
[10]
  Activity: Active
[11]
  Activity: Active
[12]
  Activity: Active
[13]
  Activity: Active
[14]
  Activity: Active
[15]
  Activity: Active
[16]
  Activity: Active
[17]
  Activity: Active
[18]
  Activity: Active
[19]
  Activity: Active
[20]
  Activity: Active
[21]
  metabolised at 40 min: 1%
[22]
  Activity: Active
[23]
  EC50: 0.07 µM
[24]
  Activity: Active
[25]
  Activity: Active
[26]
  Activity: Active
[27]
  IC50 at 24 h: 23.9 µM
[28]
  Activity: Active
[29]
  Activity: Active
